For series [1], the system named is adherent glioma cells (U87, U251). Briefly: in vitro expansion of adherent glioma cells cultured with 10% serum. It counts as cell-based, human. Conditions: for effect on growth / number of adherent glioma cells (U87, U251): 4 days after administration, vs DMSO vehicle; for concentration at which a significant decrease in number of adherent glioma cells was observed: escalating doses. The method, then: (§1) Dabigatran etexilate (Pradaxa) was obtained as 150 mg capsules from Boehringer Ingelheim (Ingelheim, Germany) for in vivo experiments. Each capsule was freshly dissolved in 4 ml of acidic water to yield 37.5 mg/ml. Dabigatran etexilate was dosed depending of the body weight of the mouse, twice a day, using oral gavage. For in vitro analysis, the chemical compound dabigatran etexilate (BIER-1048) was purchased from Cedarlane USA (S2154-5 mg) and dissolved in dimethylsulfoxide (DMSO) following manufacturer's instructions.
(§2) The selective PAR-1 antagonist SCH79797 was purchased from Tocris Bioscience (Ellisville, Mo., USA) and dissolved in dimethylsulfoxide (DMSO) following manufacturer's instructions. The selective oral PAR-1 inhibitor SCH 530348 (Vorapaxar) was purchased from Axon medchem (Axon 1755) and reconstituted following manufacturer's instructions.
(§3) The various physiological and pathophysiological effects exerted by PAR-1 activation have led to the development of multiple selective PAR-1 antagonists over the years (Garcia-Lopez et al., “Thrombin-Activated Receptors: Promising Targets for Cancer Therapy?” Curr Med Chem 17:109-128 (2010), which is hereby incorporated by reference in its entirety). […] On that basis, it was further asked whether pharmacological inhibition of PAR-1 can slow the growth of glioma cells and A2B5^+ TPCs. Adherent glioma cells grown in 10% Serum (U87, U251) and A2B5^+ TPCs derived from primary GBM cell lines cultured in SFM were subjected to escalating doses of the PAR-1 antagonists SCH-79797.
(§4) Indeed, SCH-530348 represents currently the most advanced and orally available specific PAR-1 antagonist, and has been evaluated in two large phase III clinical trials in patients with cardiovascular disease. […] To examine its effect on glioma cells and TPCs, SCH-530348 was administrated with escalating doses to glioma cells following the same paradigm previously described. […] Importantly, normal adult astrocytes were not affected by SCH-530348 administration (FIG. 6C).
(§5) Given the availability of already approved and relatively safe drugs by which the thrombin may be antagonized, the effect of pharmacological inhibition of thrombin using the oral inhibitor dabigatran etexilate (dabigatran) in vitro was next examined. Dabigatran (marketed as Pradaxa) is an oral inhibitor of thrombin, approved for use in patients with or at risk of thrombotic disorders (Lee and Ansell, “Direct Thrombin Inhibitors,” Br J Clin Pharmacol 72:581-592 (2011); Stangier, “Clinical Pharmacokinetics and Pharmacodynamics of the Oral Direct Thrombin Inhibitor Dabigatran Etexilate,” Clin Pharmacokinet 47:285-295 (2008), which are hereby incorporated by reference in their entirety). […] To examine whether dabigatran treatment might suppress the growth of glial neoplasms, glioma cells and TPCs were treated with escalating doses of dabigatran and counted 4 days after drug administration.

The next series deals with angiogenesis. The following applies: literature; cited from earlier work.
Series [2] relates to several human and mouse cell lines. The following applies: literature; cited from earlier work.
Series [3] deals with normal astrocytes derived from the adult human brain. Briefly: growth of normal adult astrocytes in vitro. The following applies: 4 days after administration. The format is cell-based.
Series [4] relates to A2B5+ glioma TPCs (GCL) isolated from GBM-derived cell lines. Briefly: in vitro expansion of A2B5+ glioma TPCs (GCL), cell count after escalating doses. The following applies: for concentration at which a significant decrease in number of A2B5+ TPCs was observed: escalating doses, vs vehicle; for effect on growth / number (in vitro expansion) of A2B5+ glioma TPCs: serum-free media with FGF, EGF, PDGF, 4 days after administration, vs DMSO vehicle. The format is cell-based, human. The method, then: After dissociation, unsorted and A2B5 selected primary cells derived from tumor samples were seeded in a 6 well cell suspension plate at 100,000-200,000 cells/ml in DMEM/F12/N1 media containing FGF, EGF and PDGF (20 ng/ml) as previously described (Nunes et al., “Identification and Isolation of Multipotential Neural Progenitor Cells from the Subcortical White Matter of the Adult Human Brain,” Nat Med 9:439-447 (2003), which is hereby incorporated by reference in their entirety). Growth factors and media were renewed 3 times per week. […] The cells were tumorigenic in vivo after transplantation into the brains of immunodeficient mice, in which they generated tumors that recapitulated the histological and phenotypic features of the parental GBM.
as §1, §2, §3, §4, §5

Series [5] deals with normal astrocytes derived from the fetal human brain. Briefly: growth of normal fetal astrocytes in vitro. The following applies: for effect on growth of normal fetal astrocytes / concentrations at which growth of normal fetal astrocytes is slightly decreased: 4 days after administration. The format is cell-based.
For series [6] the following is noted: stable patients with a history of myocardial infarction; literature; cited from earlier work.
For series [7] the following is noted: literature; cited from earlier work.
For series [8], the system named is A2B5+ glioma TPCs (GCL) subcutaneous xenograft. The series can be described thus: subcutaneous heterotopic A2B5+ glioma TPC xenograft, tumor volume. It counts as in vivo, immunodeficient NOG mice. The following applies: 37.5 mg/kg twice daily, oral gavage, starting 11 days post-subcutaneous injection, NOG mice. On the procedure:
as §1
Glioma cells and/or A2B5^+ TPCs (1-4E^+06 cells/animal) were collected, resuspended in 75 μl of media, and mixed (1:1) with Matrigel (9.8 mg/ml), prior to subcutaneous injection (150 μl, final volume) into the flanks of immunodeficient NOG mice (5-8 weeks) (1-4E^+06 cells/animal). Subcutaneous tumor growth was measured every other day morphometrically using vernier calipers, and tumor volumes were estimated according to the formula a^2b/2, where a and b are the shorter and longer diameters of the tumor, respectively. […] The remaining mice were gavaged at the same times with vehicle control (acidic water). […]
To translate these findings into a clinically relevant approach, the anti-tumor activity of dabigatran was further evaluated in vivo. […] Tumor volume was then measured every other day using vernier calipers. […]

A further series concerns breast carcinoma cells. Conditions: literature; cited from earlier work.

Structures are written as SMILES. Entries after “also recorded” stand apart in the source; their conditions may differ. Where only a bound is given, the exact number is not on record here.

`CC(C)c1ccc(Cn2ccc3c4c(N)nc(NC5CC5)nc4ccc32)cc1` [SCH79797, N3-Cyclopropyl-7-[[4-(1-Methylethyl)Phenyl]Methyl]-7H-Pyrrolo[3,2-f]Quinazoline-1,3-Diamine]: the “effect on growth / number of adherent glioma cells (U87, U251)” value (“effect on growth / number … (U87, U251)” below) in series [1] is “significantly decreases the number of GCL and glioma cells in a dose dependent manner”; in series [1] (listed as SCH-79797), “significant concentration dependent inhibition of cell growth”. For the same compound, the “concentration at which a significant decrease in number of adherent glioma cells was observed” value in [1] was at least 0.1 µM. Moreover, the “anti-angiogenic activity in vivo” value in the series with angiogenesis is “potent anti-angiogenic in vivo”. The “effect on proliferation, migration and growth of several human and mouse cell lines” value in series [2] is “showed anti-proliferative effects, blocked cell migration and growth”. Further, the “effect on growth of normal adult astrocytes” value was “did not affect the growth of normal fetal and adult astrocytes” in series [3]; “no significant differences” in series [3] (listed as SCH-79797). Moreover, the “concentration at which a significant decrease in number of A2B5+ TPCs was observed” value in series [4] is at least 0.1 µM. Besides, the “effect on growth / number (in vitro expansion) of A2B5+ glioma TPCs” value in series [4] is “potent inhibitors of glioma growth in vitro; also recorded: suppressed the growth and proliferation of glioma TPCs in vitro; also recorded: significantly decreases the number of GCL and glioma cells in a dose dependent manner”; in [4] (listed as SCH-79797), “significant concentration dependent inhibition of cell growth”. The “effect on growth of normal fetal astrocytes” value in series [5] was “did not affect the growth of normal fetal and adult astrocytes”; in series [5] (listed as SCH-79797), “able to slow the growth of normal fetal astrocytes”. For the same compound, the “concentration at which a significant decrease in number of fetal astrocytes was observed” value in series [5] (escalating doses) is at least 0.5 µM.
As to `CCOC(=O)N[C@@H]1CC[C@@H]2[C@@H](C1)C[C@H]1C(=O)O[C@H](C)[C@H]1[C@H]2/C=C/c1ccc(-c2cccc(F)c2)cn1` [SCH530348, Vorapaxar], in series [1], the “effect on growth / number … (U87, U251)” value was “significantly decreases the number of GCL and glioma cells in a dose dependent manner”; the “concentration at which a significant decrease in number of adherent glioma cells was observed” value came to 25 µM. For the same compound, the “effect on growth / number … (U87, U251)” value in series [1] (listed as SCH-530348) is “significant decrease in the number of glioma cells”. In addition, the “effect on growth of normal adult astrocytes” value in series [3] is on record as “did not affect the growth of normal adult astrocytes”. Also, the “effect on growth of normal adult astrocytes” value in series [3] (listed as SCH-530348) is “not affected”. In addition, in series [4], the “concentration at which a significant decrease in number of A2B5+ TPCs was observed” value is at least 5 µM; the “effect on growth / number (in vitro expansion) of A2B5+ glioma TPCs” value is “potent inhibitors of glioma growth in vitro; also recorded: suppressed the growth and proliferation of glioma TPCs in vitro; also recorded: significantly decreases the number of GCL and glioma cells in a dose dependent manner”. The “effect on growth / number (in vitro expansion) of A2B5+ glioma TPCs” value in series [4] (listed as SCH-530348) is on record as “significantly reduced the growth”. The “major cardiovascular thrombotic events” value in series [6] was “significantly reduced major cardiovascular thrombotic events”. For the same compound, in series [5], the “concentrations at which growth of normal fetal astrocytes is slightly decreased” value was above 0.5 µM and the “effect on growth of normal fetal astrocytes” value was “slightly decreases the growth of normal fetal astrocytes”. Further, in series [7], the oral bioavailability result was “excellent” and the safety result was “excellent”.
Take `CCCCCCOC(=O)NC(=N)c1ccc(NCc2nc3cc(C(=O)N(CCC(=O)OCC)c4ccccn4)ccc3n2C)cc1` [dabigatran etexilate]: the “effect on growth / number … (U87, U251)” value in series [1] (listed as Dabigatran etexilate) is “significantly decreases the number of GCL and glioma cells in a dose dependent manner”; in [1] (listed as dabigatran), “decreased in vitro expansion in a dose dependent manner”. Also, the “concentration at which a significant decrease in number of adherent glioma cells was observed” value in [1] is at least 10 µM. Also, the figures for the “effect on tumor volumes compared to vehicle controls” value in series [8] and in series [8] (listed as Pradaxa) were “significant reduction in tumor volumes; also recorded: significantly suppressed glioma growth; also recorded: significantly reduced tumor volumes” and “significantly reduce the tumor volumes”, respectively. In addition, the “effect on growth of normal adult astrocytes” value in [3] (listed as Dabigatran etexilate) is “did not affect the growth of normal adult astrocytes”; in series [3] (listed as dabigatran), “not significantly affected”. Moreover, the “concentration at which a significant decrease in number of A2B5+ TPCs was observed” value in [4] worked out at 5 µM. For the same compound, the “effect on growth / number (in vitro expansion) of A2B5+ glioma TPCs” value was “suppressed the growth and proliferation of glioma TPCs in vitro” in series [4]; “significantly decreases the number of GCL and glioma cells in a dose dependent manner” in series [4] (listed as Dabigatran etexilate); “decreased in vitro expansion in a dose dependent manner; also recorded: potent inhibitors of glioma growth in vitro” in series [4] (listed as dabigatran). The breast cancer progression entry in the series with breast carcinoma cells was “reduce breast cancer progression”. The “invasiveness of breast carcinoma cells in mice” value in the series on breast carcinoma cells was “inhibits the invasiveness of breast carcinoma cells”. Also, the “concentrations at which growth of normal fetal astrocytes is slightly decreased” value in series [5] was above 0.5 µM. Also, the “effect on growth of normal fetal astrocytes” value in series [5] (listed as Dabigatran etexilate) was “slightly decreases the growth of normal fetal astrocytes”; in series [5] (listed as dabigatran), “not significantly affected”.

The values are drawn from patent publication US20170281710A1, “USE OF INHIBITORS OF BINDING BETWEEN A PAR-1 RECEPTOR AND ITS LIGANDS FOR THE TREATMENT OF GLIOMA” (University of Rochester, priority 2013, published 2017).
